From patent US20150125542A1, “TIE2 Activator, Vascular Endothelial Growth Factor (VEGF) Inhibitor, Angiogenesis Inhibitor, Vascular Maturing Agent, Vascular Normalizing Agent and Vascular Stabilizing Agent, and Pharmaceutical Composition” (Maruzen Pharmaceuticals Co., Ltd., priority 2010, published 2015)

Legend:
[1] = system: human normal umbilical vein vascular endothelial cells co-cultured with human normal dermal fibroblasts; assay: Angiogenesis inhibitory effect test (angiogenesis kit, number of luminal branching, VEGF-A); assay type: cell-based; details: VEGF-A (+) 10 ng/mL
Experimental: The pharmacological effect, i.e., angiogenesis inhibitory effect of the hawthorn extract was evaluated by measuring a decrease of the number of vascular branching by means of image analysis as follows. At first, human normal umbilical vein vascular endothelial cells were co-cultured with human normal dermal fibroblasts at a constant ratio using the angiogenesis kit (product of KURABO INDUSTRIES LTD.) to a proliferative state at the early stage of lumen formation. The test sample, the hawthorn extract (fruits) (HAWTHORN EXTRACT POWDER MF, product of MARUZEN PHARMACEUTICALS CO., LTD.), was added to media so as to have concentrations described in Table 2 in the presence of 10 ng/mL of vascular endothelial cell growth factor-A (VEGF-A) (product of KURABO INDUSTRIES LTD.), followed by incubation at 37° C. and 5% CO2. […] The CD31 (PECAM-1) in HUVEC cells was stained with the lumen staining kit (CD31, product of KURABO INDUSTRIES LTD.) The stained cells in the wells were photographed and counted for the number of luminal branching. Based on the thus-obtained number of luminal branching, the angiogenesis inhibitory effect was evaluated.

Tie2 = target: T1, Tie2 (Homo sapiens, UniProt Q02763); assay: Tie2 activating effect (immunoassay) test in HUVECs; assay type: cell-based
T1 construct: endogenous in cells; host or cells: HUVEC (human umbilical vein endothelial cells)
T1 sequence (Q02763 23-1124): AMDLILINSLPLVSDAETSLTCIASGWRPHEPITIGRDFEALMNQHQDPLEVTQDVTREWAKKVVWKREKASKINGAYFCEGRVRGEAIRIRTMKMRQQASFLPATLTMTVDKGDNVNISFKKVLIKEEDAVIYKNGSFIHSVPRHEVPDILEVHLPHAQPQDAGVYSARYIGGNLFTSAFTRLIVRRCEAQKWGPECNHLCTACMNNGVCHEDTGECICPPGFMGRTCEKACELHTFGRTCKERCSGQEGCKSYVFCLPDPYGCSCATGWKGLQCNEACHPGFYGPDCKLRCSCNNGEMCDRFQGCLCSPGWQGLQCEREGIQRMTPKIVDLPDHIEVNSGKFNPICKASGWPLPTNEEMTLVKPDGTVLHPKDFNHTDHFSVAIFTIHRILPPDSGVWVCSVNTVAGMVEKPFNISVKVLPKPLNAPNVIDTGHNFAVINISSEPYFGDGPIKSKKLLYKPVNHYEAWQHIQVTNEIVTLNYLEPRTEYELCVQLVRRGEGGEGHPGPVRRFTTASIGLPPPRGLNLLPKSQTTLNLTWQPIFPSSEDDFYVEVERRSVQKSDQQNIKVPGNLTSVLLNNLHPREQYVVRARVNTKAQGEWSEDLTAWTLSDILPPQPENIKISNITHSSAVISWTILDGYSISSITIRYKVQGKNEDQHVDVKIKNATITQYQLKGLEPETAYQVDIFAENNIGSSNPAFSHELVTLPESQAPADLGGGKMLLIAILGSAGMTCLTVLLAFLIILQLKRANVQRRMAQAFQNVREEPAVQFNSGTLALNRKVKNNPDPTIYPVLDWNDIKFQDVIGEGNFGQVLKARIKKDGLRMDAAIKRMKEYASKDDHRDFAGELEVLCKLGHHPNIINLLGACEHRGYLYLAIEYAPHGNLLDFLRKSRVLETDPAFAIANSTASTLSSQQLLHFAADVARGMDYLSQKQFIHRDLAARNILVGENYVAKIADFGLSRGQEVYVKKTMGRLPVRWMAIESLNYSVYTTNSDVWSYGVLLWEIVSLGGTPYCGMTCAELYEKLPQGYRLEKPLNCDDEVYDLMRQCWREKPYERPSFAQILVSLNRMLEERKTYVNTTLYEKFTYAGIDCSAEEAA
Experimental: The pharmacological effect of the hawthorn extract was evaluated by detecting the amount of phosphorylated Tie2 protein. The phosphorylated Tie2 protein was quantified by means of an immunochemical method including an immunoassay. The method was performed as follows.
At first, normal human umbilical vein endothelial cells (HUVECs) were cultured to confluent, inoculated into a 96-well plate at 2.0×10^4 cells/0.1 mL/well, and then cultured over night in a low-serum growth medium for vascular endothelial cells (HUMEDIA-EG2, product of KURABO INDUSTRIES LTD.) Next, the low-serum growth medium was replaced by 0.1 mL of a basal medium for vascular endothelial cells (HUMEDIA-EB2, product of KURABO INDUSTRIES LTD.) at 3 hours before cell stimulation (addition of test samples), and the post-cultured HUVECs were again cultured therein. […] After completion of the incubation, the amount of phosphorylated Tie2 and the total amount of Tie2 in the cells were measured by the immunoassay kit (HUMAN PHOSPHO-TIE2 (Y992) IMMUNOASSAY, product of R&D Systems) according to a manufacturer's protocol to thereby calculate the ratio of the amount of phosphorylated Tie2 to the total amount of Tie2.
Similarly, the ratio of the amount of phosphorylated Tie2 to the total amount of Tie2 was calculated in the case of using dimethyl sulfoxide (DMSO) as a negative control. […]

`Cc1ccc(C(=O)Nc2ccc(S(=O)(=O)O)c3cc(S(=O)(=O)O)cc(S(=O)(=O)O)c23)cc1NC(=O)c1cccc(NC(=O)Nc2cccc(C(=O)Nc3cc(C(=O)Nc4ccc(S(=O)(=O)O)c5cc(S(=O)(=O)O)cc(S(=O)(=O)O)c45)ccc3C)c2)c1` [Suramin] was tested, and the “Number of vascular branching” value ([1]; 50 μM, Means ± S.E., n = 3) was 30.0 ± 4.0 and the inhibition at 50 µM ([1]; Homo sapiens, read-out: Angiogenesis inhibitory rate (%)) was 70.8%.

B1: Angiopoietin-1: Angiopoietin-1 (product of R&D Systems, Inc.) as a positive control (protein, UniProt Q15389 16-498, looked up)
Angiopoietin-1: HIGCSNQRRSPENSGRRYNRIQHGQCAYTFILPEHDGNCRESTTDQYNTNALQRDAPHVEPDFSSQKLQHLEHVMENYTQWLQKLENYIVENMKSEMAQIQQNAVQNHTATMLEIGTSLLSQTAEQTRKLTDVETQVLNQTSRLEIQLLENSLSTYKLEKQLLQQTNEILKIHEKNSLLEHKILEMEGKHKEELDTLKEEKENLQGLVTRQTYIIQELEKQLNRATTNNSVLQKQQLELMDTVHNLVNLCTKEGVLLKGGKREEEKPFRDCADVYQAGFNKSGIYTIYINNMPEPKKVFCNMDVNGGGWTVIQHREDGSLDFQRGWKEYKMGFGNPSGEYWLGNEFIFAITSQRQYMLRIELMDWEGNRAYSQYDRFHIGNEKQNYRLYLKGHTGTAGKQSSLILHGADFSTKDADNDNCMCKCALMLTGGWWFDACGPSNLNGMFYTAGQNHGKLNGIKWHYFKGPSYSLRSTTMMIRPLDF
For B1, the “Activation rate of Tie2 (%)” value (Tie2; 0.5 μg/mL, 10 min, negative control DMSO = 100, Means ± S.E., n = 4) was 130.2 ± 8.3 % and the “Tie2 activating effect (immunoassay), in words” value (Tie2; immunoassay kit) was “verified to be phosphorylated and thus activated”.
